Patent US20260274810A1, “NOVEL MITOFUSIN INHIBITORS” (ALBERT EINSTEIN COLLEGE OF MEDICINE, priority 2023, published 2026)

Columns and labels:
[1] = tested on: Tomm20, mitotracker green, mtDNA/nDNA, mitochondrial biogenesis markers; assay: Mitochondrial biomass and biogenesis markers; type: cell-based
Procedure: Western blot. Western blots were performed from whole cell lysates (WCL) prepared in lysis buffer containing 50 mM Tris-HCl pH 7.5, 1% Triton X-100, 150 mM NaCl, 5 mM MgCl2, 1 mM EGTA and 10% glycerol in the presence of protease inhibitor cocktail (Roche). WCL were separated on a 4-12% NuPAGE MES gel (Invitrogen), transferred into a PVDF membrane, block for 1 hr and immunoblot with the corresponding anti-bodies.
Analysis of mitochondrial biogenesis-related genes by q-PCR. Total RNA was extracted by using RNeasy Mini Kit (Qiagen) followed by cDNA synthesis using the SuperScript IV VILO Master Mix (Thermo Scientific), both performed according to the manufacturer's protocol. q-PCR was performed using the following primers: […]
For the q-PCR reaction, Power SYBR Green master mix (Thermo Scientific) was used according to the manufacturer's instructions. Briefly, each reaction consisted of 10 ng cDNA, 5 μL Power SYBR Green master mix, 200 nM primers (forward and reverse), and RNase-free water up to 10 μL. q-PCR was performed on the ViiA 7 Real-Time PCR System (Thermo Scientific) with the following cycle parameter: 95° C. for 10 min, 40 cycles of 95° C. for 15 s, and 60° C. for 1 min. q-PCR products were analyzed by melting curves for unspecific products or primer dimer formation. Rpi39 was used as housekeeping gene and 2^−ΔΔCT method was applied to determine the relative mRNAs expression. […]

[2] = tested on: caspase-3/7 in U2OS cells; assay: Caspase-3/7 activation assay; type: cell-based
Procedure: Caspase-3/7 activation assay. Cells (5×10^3 cells/well) were seeded in a 96-well white plate and treated with MASM7, MFI8. Caspase 3/7 activation was measured after 6 hr by addition of the Caspase-Glo 3/7 reagent according to the manufacturer's protocol (Promega). Luminescence was detected by a F200 PRO microplate reader (TECAN). Caspase assays were performed in at least triplicate and the data normalized to vehicle-treated control wells. Dilutions of MASM7 or MFI8 were performed using a TECAN D300e Digital Dispenser from 10 mM stocks.

Cc1cccc(NC(C)c2cc(Cl)ccc2O)c1C (stereo not drawn) [MFI8]
gene expression levels of mitochondrial biogenesis markers [1]: no alteration | Tomm20 protein levels, mitotracker green intensity and mitochondrial to nuclear DNA ratio ([1]; mitochondrial biomass): neither MASM7 nor MFI8 altered | caspase-3/7 activation [2]: induced caspase-3/7 activation
